Values quoted from earlier work, collected in article PMC8198792, “Prediction of Anticancer Peptides with High Efficacy and Low Toxicity by Hybrid Model Based on 3D Structure of Peptides” (International Journal of Molecular Sciences, 2021).
Read-outs that look alike come from different tables or passages of the source.

Experiments:
cancer cell lines = test system: cancer cell lines; design: method as in 6 sources, ref CancerPPD [45] and SATPdb ||| ref CancerPPD/SATPdb ||| ref CancerPPD, SATPdb, Swissprot (PDB) ||| ref CancerPPD/SATPdb/Swissprot(PDB) ||| ref CancerPPD / SATPdb ||| ...; conditions: 0 = non-ACP, cited from earlier work
From the text: Supplement ijms-22-05630-s001.zip/ACPs(seguence).xlsx, sheet "D1" | column: Activity || Supplement ijms-22-05630-s001.zip/ACPs(seguence).xlsx, sheet "D2" | column: Activity || Supplement ijms-22-05630-s001.zip/ACPs(seguence).xlsx, sheet "D3" | column: Activity || (+ 2 further places)

[1] = test system: many types of cells, including non-cancer cells; conditions: toxic peptides dataset TD2; class label 1 (toxic, positive set) or 0 (non-toxic AMP, negative set); ref SATPdb; cited from earlier work
[2] = ACPs dataset D3 (supplement sheet "D3"), 1 = ACP, ref CancerPPD [45] and SATPdb
[3] = ACPs dataset D4 (sheet "D4"), label 1 = ACP, ref CancerPPD / SATPdb
[4] = ACPs dataset D5, sheet "D5", label 1 = ACP, ref CancerPPD [45] and SATPdb
[5] = ACPs dataset D3 (sheet "D3"), label 1 = ACP, ref CancerPPD/SATPdb

GKVLDKFGKIVGKVLKQLKKVSAVAKV [satpdb11239]
Activity (cancer cell lines; [2]): 0
Activity (cancer cell lines; [3]): 0
Activity (cancer cell lines; [4]): 0
Activity [1]: 1

FLPFLKSILGKIL [satpdb13847]
Activity (cancer cell lines; [5]): 0
Activity (cancer cell lines; [3]): 0
Activity (cancer cell lines; [4]): 0
Activity [1]: 0

RWKIFKKIEKVGRNVRDGIIKAGPAVAVVGQAATVVK [satpdb12319]
Activity (cancer cell lines; [5]): 0
Activity (cancer cell lines; [3]): 0
Activity (cancer cell lines; [4]): 0
Activity [1]: 0

FLSLLPSLVSGAVSLVKIL [satpdb10512]
Activity (cancer cell lines; [2]): 0
Activity (cancer cell lines; [3]): 0
Activity (cancer cell lines; [4]): 0
Activity [1]: 0

AVLDILKDVGKGLLSHFMEKV [satpdb13844]
Activity (cancer cell lines; [5]): 0
Activity (cancer cell lines; [3]): 0
Activity (cancer cell lines; [4]): 0
Activity [1]: 0

SILPTIVSFLTKFL [satpdb10195]
Activity (cancer cell lines; [2]): 0
Activity (cancer cell lines; [3]): 0
Activity (cancer cell lines; [4]): 0
Activity [1]: 0

FLPFLAKILTGVL [satpdb14646]
Activity (cancer cell lines; [5]): 0
Activity (cancer cell lines; [3]): 0
Activity (cancer cell lines; [4]): 0
Activity [1]: 0

FLSLIPHAINAVSAIAKHS [satpdb10076]
Activity (cancer cell lines; [2]): 0
Activity (cancer cell lines; [3]): 0
Activity (cancer cell lines; [4]): 0
Activity [1]: 0

VGKVLKQLKKVSAVAKVAMKKGAALLK [satpdb11069]
Activity (cancer cell lines; [2]): 0
Activity (cancer cell lines; [3]): 0
Activity (cancer cell lines; [4]): 0
Activity [1]: 1

RGGRLCYCRPRFCVCVGR [satpdb12800]
Activity (cancer cell lines; [5]): 0
Activity (cancer cell lines; [3]): 0
Activity (cancer cell lines; [4]): 0
Activity [1]: 0

GLWSKIKDVAAAAGKAALGAVNEAL [satpdb12483]
Activity (cancer cell lines; [5]): 0
Activity (cancer cell lines; [3]): 0
Activity (cancer cell lines; [4]): 0
Activity [1]: 0

VKLfPVKLfP [satpdb12197]
Activity (cancer cell lines; [5]): 0
Activity (cancer cell lines; [3]): 0
Activity (cancer cell lines; [4]): 0
Activity [1]: 1

GFRDVLKGAAKAFVKTVAGHIAN [satpdb12067]
Activity (cancer cell lines; [5]): 0
Activity (cancer cell lines; [3]): 0
Activity (cancer cell lines; [4]): 0
Activity [1]: 0

FKIKPGKVLDKFGKIVGKVLKQLKKVS [satpdb13509]
Activity (cancer cell lines; [5]): 0
Activity (cancer cell lines; [3]): 0
Activity (cancer cell lines; [4]): 0
Activity [1]: 1

GLWEKIKEKANELVSGIVEGVK [satpdb12905]
Activity (cancer cell lines; [5]): 0
Activity (cancer cell lines; [3]): 0
Activity (cancer cell lines; [4]): 0
Activity [1]: 0

VOLFPWFNQY [satpdb12517]
Activity (cancer cell lines; [5]): 0
Activity (cancer cell lines; [3]): 0
Activity (cancer cell lines; [4]): 0
Activity [1]: 0

AILTTLANWARKFL [satpdb12672]
Activity (cancer cell lines; [5]): 0
Activity (cancer cell lines; [3]): 0
Activity (cancer cell lines; [4]): 0
Activity [1]: 0

FLPLLASLFSGLF [satpdb11101]
Activity (cancer cell lines; [2]): 0
Activity (cancer cell lines; [3]): 0
Activity (cancer cell lines; [4]): 0
Activity [1]: 0

GLLGTLGNLLNGLGL [satpdb12279]
Activity (cancer cell lines; [5]): 0
Activity (cancer cell lines; [3]): 0
Activity (cancer cell lines; [4]): 0
Activity [1]: 0

IWSAIWSGIKGLL [satpdb12218]
Activity (cancer cell lines; [5]): 0
Activity (cancer cell lines; [3]): 0
Activity (cancer cell lines; [4]): 0
Activity [1]: 0

GVWDWLKKTAKNVWNSDIVKQLKGKAINAAKNYVAEKIGATPS [satpdb11887]
Activity (cancer cell lines; [2]): 0
Activity (cancer cell lines; [3]): 0
Activity (cancer cell lines; [4]): 0
Activity [1]: 0

KCNTATCATQRLANFLVHSSNNFGAILSSTNVGSNTY [satpdb11357]
Activity (cancer cell lines; [2]): 0
Activity (cancer cell lines; [3]): 0
Activity (cancer cell lines; [4]): 0
Activity [1]: 0

ILPLVGNLLNDLL [satpdb10023]
Activity (cancer cell lines; [2]): 0
Activity (cancer cell lines; [3]): 0
Activity (cancer cell lines; [4]): 0
Activity [1]: 0

LIGPVLGLVGSALGGLLKKI [satpdb10453]
Activity (cancer cell lines; [2]): 0
Activity (cancer cell lines; [3]): 0
Activity (cancer cell lines; [4]): 0
Activity [1]: 1

KWKSFIKKLTSAAKKVVTTAKPLISS [satpdb10912]
Activity (cancer cell lines; [2]): 0
Activity (cancer cell lines; [3]): 0
Activity (cancer cell lines; [4]): 0
Activity [1]: 0

ILPILGNLLNGLL [satpdb12015]
Activity (cancer cell lines; [5]): 0
Activity (cancer cell lines; [3]): 0
Activity (cancer cell lines; [4]): 0
Activity [1]: 1

KWKVFKKIEKMGRNIRNGIVKAGPAIAVLGEAKAILS [satpdb11163]
Activity (cancer cell lines; [2]): 0
Activity (cancer cell lines; [3]): 0
Activity (cancer cell lines; [4]): 0
Activity [1]: 0

GVLSAFKNALPGIMKIIV [satpdb14593]
Activity (cancer cell lines; [5]): 0
Activity (cancer cell lines; [3]): 0
Activity (cancer cell lines; [4]): 0
Activity [1]: 0

LSPNLLKSLL [satpdb13883]
Activity (cancer cell lines; [5]): 0
Activity (cancer cell lines; [3]): 0
Activity (cancer cell lines; [4]): 0
Activity [1]: 0

FLGALWNVAKSVF [satpdb13946]
Activity (cancer cell lines; [5]): 0
Activity (cancer cell lines; [3]): 0
Activity (cancer cell lines; [4]): 0
Activity [1]: 0

GVLDIFKDAAKQILAHAAEKQI [satpdb12665]
Activity [1]: 1

FLPLVGKILSGLI [satpdb11230]
Activity (cancer cell lines; [2]): 0
Activity (cancer cell lines; [3]): 0
Activity (cancer cell lines; [4]): 0
Activity [1]: 0

GLFGILGSVAKHVLPHVIPVVAEHL [satpdb11946]
Activity (cancer cell lines; [5]): 0
Activity (cancer cell lines; [3]): 0
Activity (cancer cell lines; [4]): 0
Activity [1]: 0

FLSAITSLLGKLL [satpdb15955]
Activity [1]: 0

IIGAIAAALPHVINAIKNTF [satpdb19948]
Activity [1]: 1

ILPILSLIGGLLGK [satpdb11856]
Activity [1]: 0

FLPLLFGALSTLLPKIF [satpdb23665]
Activity [1]: 1

GALRGCWTKSYPPKPCK [satpdb24908]
Activity [1]: 1

LLDVLLE [satpdb11533]
Activity [1]: 0

IIGPVLGLVGKPLESLLE [satpdb17226]
Activity [1]: 0

FISGLIGGLMKAL [satpdb16102]
Activity [1]: 0

FLPFLIPALTSLISSL [satpdb15275]
Activity [1]: 0

GVLDILKNAAKNILAHAAEQI [satpdb26113]
Activity [1]: 1

GFIFHIIKGLFHAGKMIHGLV [satpdb15908]
Activity [1]: 0

FFPIVGKRLYGLL [satpdb15392]
Activity [1]: 0

FFGAIAAALPHVISAIKNAL [satpdb28842]
Activity [1]: 1

GIGGVLLGAGKATLKGLAKVLAEKYAN [satpdb26873]
Activity [1]: 1

GVLSVIKNALPGIMRF [satpdb16950]
Activity [1]: 0

GKWMSLLKHILK [satpdb20336]
Activity [1]: 1

ILPWKWPWWPWRR [satpdb22480]
Activity [1]: 1

RRRPRPPYLPRPRPPPFFPPRLPPRIPPGFPPRFPPRFP [satpdb15417]
Activity [1]: 0

GLLSFLPKVIGVIGHLIHPPS [satpdb15305]
Activity [1]: 0

FIGALLRPALKLLAGK [satpdb27126]
Activity [1]: 1

LLPIVGNLLNSLL [satpdb24565]
Activity [1]: 1

FLGLLGSLL [satpdb15039]
Activity [1]: 0

GLFDIVKKIAGHIVSSI [satpdb13076]
Activity [1]: 0

GMASKAGSVLGKLAKVAIGAL [satpdb16457]
Activity [1]: 0

FFPLVLGALGSILPKIF [satpdb25475]
Activity [1]: 1

LKLSPKTKDTLKKVLKGAIKGAIAIASMA [satpdb13200]
Activity [1]: 1

RILRGVSRRIMRRILTGRR [satpdb20239]
Activity [1]: 1

FLPVILPVIGKLLSGIL [satpdb17809]
Activity [1]: 1

GMWSKILGHLIR [satpdb20159]
Activity [1]: 1

GLFDIIKKIAESF [satpdb11488]
Activity [1]: 0

GVIIDTLKGAAKTVAAELLRKAHCKLTNSC [satpdb16783]
Activity [1]: 1

FLPLIGKILGTIL [satpdb15913]
Activity [1]: 0

GWLRKAAKSVGKFYYKHKYYIKAAWKIGRHAL [satpdb17212]
Activity [1]: 0

GILDAIKAFANALG [satpdb15517]
Activity [1]: 0

GIGGALLSAGKAALKGLAKVLV [satpdb22839]
Activity [1]: 1

NFLGTLVNLAKKIL [satpdb20410]
Activity [1]: 1

GFMKYIGPLIPHAVKAISDLI [satpdb17997]
Activity [1]: 1

GRRRRSVQWCAVSQPEATKCFQWQRNMRKVRGPPVSCIKRDSPIQCIQA [satpdb10374]
Activity [1]: 0

FLPLVLGALSGILPKIL [satpdb22972]
Activity [1]: 1

FIPLVSGLFSRLL [satpdb15094]
Activity [1]: 0

GLVTSLIKGAGKLLGGLFGSVTG [satpdb15873]
Activity [1]: 0

GLLDFVTGVGKDIFAQLIKQI [satpdb25435]
Activity [1]: 1

GFKRIVQRIKDFLRNLV [satpdb10735]
Activity [1]: 0

GLGSLVGNALRIGAKLL [satpdb15217]
Activity [1]: 0

IIGHLIKTALGMLGL [satpdb15972]
Activity [1]: 0

LGPALITRKPLKGKP [satpdb17072]
Activity [1]: 0

FFPLLFGALSSHLPKLF [satpdb16485]
Activity [1]: 1

GLKDIFKAGLGSLVKNIAAHVAN [satpdb11475]
Activity [1]: 0

NILNTIINLAKKIL [satpdb16074]
Activity [1]: 0

GVVTDLLNTAGGLLGNLVGSLSG [satpdb21886]
Activity [1]: 1

GLVTGLLKTAGKLLGDLFGSLSG [satpdb20565]
Activity [1]: 1

IFGAILPLALGALKNLIK [satpdb27411]
Activity [1]: 1

LLGMIPLAISAISALSKL [satpdb26571]
Activity [1]: 1
